ChEMBL document CHEMBL5537171, “Design, Synthesis, and Biological Evaluation of Potent and Selective PROTAC Degraders of Oncogenic KRASG12D” (J Med Chem, 2024)
Activity calls are given as the source filed them. No cut-off for these calls is given here.

Tests used:
[1] = Tmax in BALB/c mouse at 10 mg/kg, sc by LC-MS/MS analysis; format: ADME, organism-based; conditions: in vivo
[2] = Half life in BALB/c mouse at 10 mg/kg, sc by LC-MS/MS analysis; format: ADME, organism-based; conditions: in vivo
[3] = Selectivity index, ratio of IC50 for human ASPC1 cells assessed as inhibition of cell viability incubated for 6 hrs followed by compound washout measured after 114 hrs by Cell Titer Glo assay to IC50 for human ASPC1 cells assessed as inhibition of cell viability incubated for 120 hrs of continuous treatment by Cell Titer Glo assay; format: functional
ASPC1 [4] = assay: Antiproliferative activity against human ASPC1 cells assessed as inhibition of cell viability incubated for 6 hrs followed by compound washout measured after 114 hrs by Cell Titer Glo assay; format: functional, cell-based
ASPC1 [5] = assay: Antiproliferative activity against human ASPC1 cells assessed as inhibition of cell viability incubated for 120 hrs of continuous treatment by Cell Titer Glo assay; format: functional, cell-based; conditions: ASPC1, 120 h
[6] = target: T1, von Hippel-Lindau disease tumor suppressor/GTPase KRas (Homo sapiens, UniProt P01116+P40337, G12D); assay: PROTAC activity at VHL/KRAS G12D mutant in human ASPC1 cells assessed as induction of protein degradation incubated for 24 hrs by Western blot analysis; format: cell-based; conditions: read-out: DC50
[7] = Cooperativity factor alpha, ratio of IC50 for His-tagged VHL/Elongin C/Elongin B (unknown origin) to IC50 for His-tagged VHL/Elongin C/Elongin B/KRAS (unknown origin)
[8] = Drug uptake in human ASPC1 cells at 10 uM incubated for 1 hr by MS analysis; format: ADME, cell-based; conditions: aspc1, 1 h
[9] = tested on: von Hippel-Lindau disease tumor suppressor/GTPase KRas (Homo sapiens), P01116+P40337 [G12D]; assay: PROTAC activity at VHL/KRAS G12D mutant in human ASPC1 cells assessed as induction protein degradation at 1 uM measured for 2 to 24 hrs by Western blot analysis; format: cell-based; conditions: time 2-24 hrs
[10] = tested on: von Hippel-Lindau disease tumor suppressor/GTPase KRas (Homo sapiens), P01116+P40337 [G12D]; assay: PROTAC activity at VHL/KRAS G12D mutant in human ASPC1 cells assessed as induction protein degradation at 1 uM measured for 6 hrs by Western blot analysis relative to control; format: cell-based
[11] = tested on: von Hippel-Lindau disease tumor suppressor/GTPase KRas (Homo sapiens), P01116+P40337 [G12D]; assay: PROTAC activity at VHL/KRAS G12D mutant in human ASPC1 cells assessed as induction of protein degradation at 1 uM incubated for 6 hrs by Western blot analysis; format: cell-based
[12] = tested on: von Hippel-Lindau disease tumor suppressor/GTPase KRas (Homo sapiens), P01116+P40337 [G12D]; assay: PROTAC activity at VHL/KRAS G12D mutant in human ASPC1 cells assessed as induction of protein degradation at 1 uM pretreated with (2S,4R)-1-((S)-2-acetamido-3,3-dimethylbutanoyl)-4-hydroxy-N-((S)-1-(4-(4-methylthiazol-5-yl)phenyl)ethyl)pyrrolidine-2-carboxamide followed by compound treatment for 6 hrs by Western blot analysis; format: cell-based
[13] = tested on: von Hippel-Lindau disease tumor suppressor/GTPase KRas (Homo sapiens), P01116+P40337 [G12D]; assay: PROTAC activity at VHL/KRAS G12D mutant in human ASPC1 cells assessed as induction of protein degradation at 1 uM pretreated with chloroquine followed by compound treatment for 6 hrs by Western blot analysis; format: cell-based
[14] = tested on: von Hippel-Lindau disease tumor suppressor/GTPase KRas (Homo sapiens), P01116+P40337 [G12D]; assay: PROTAC activity at VHL/KRAS G12D mutant in human ASPC1 cells assessed as induction of protein degradation at 0.1 uM incubated for 24 hrs by Western blot analysis relative to control; format: cell-based
[15] = tested on: von Hippel-Lindau disease tumor suppressor/GTPase KRas (Homo sapiens), P01116+P40337 [G12D]; assay: PROTAC activity at VHL/KRAS G12D mutant in human ASPC1 cells assessed as induction of protein degradation at 1 uM incubated for 24 hrs by Western blot analysis relative to control; format: cell-based
[16] = tested on: von Hippel-Lindau disease tumor suppressor/GTPase KRas (Homo sapiens), P01116+P40337 [G12S]; assay: PROTAC activity at VHL/KRAS G12S mutant in human A549 cells assessed as induction of protein degradation at 0.1 uM incubated for 24 hrs by Western blot analysis; format: cell-based
ASPC1 [17] = assay: Downregulation of KRT5 level in human ASPC1 cells at 0.1 uM incubated for 6 hrs by DIA-based proteomic analysis; format: functional, cell-based
[18] = target: T1, von Hippel-Lindau disease tumor suppressor/GTPase KRas; assay: PROTAC activity at VHL/KRAS G12D mutant in human PANC-1 cells assessed as induction of protein degradation incubated for 24 hrs by Western blot analysis; format: cell-based
SNU1 = assay: Antiproliferative activity against human SNU1 cells harboring KRAS G12D mutant assessed as inhibition of cell viability incubated for 5 days by Cell Titer Glo assay; format: functional, cell-based; conditions: SNU1, 120 h
HPAF-II = assay: Antiproliferative activity against human HPAF-II cells harboring KRAS G12D mutant assessed as inhibition of cell viability incubated for 5 days by Cell Titer Glo assay; format: functional, cell-based; conditions: 120 h
AGS = assay: Antiproliferative activity against human AGS cells harboring KRAS G12D mutant assessed as inhibition of cell viability incubated for 5 days by Cell Titer Glo assay; format: functional, cell-based; conditions: 120 h
Panc 04.03 = assay: Antiproliferative activity against human Panc 04.03 cells harboring KRAS G12D mutant assessed as inhibition of cell viability incubated for 5 days by Cell Titer Glo assay; format: functional, cell-based; conditions: Panc 04.03, 120 h
NCI-H1975 = assay: Antiproliferative activity against human NCI-H1975 cells harboring wild-type KRAS assessed as inhibition of cell viability incubated for 5 days by Cell Titer Glo assay; format: functional, cell-based; conditions: NCI-H1975, 120 h
[19] = tested on: von Hippel-Lindau disease tumor suppressor/GTPase KRas (Homo sapiens), P01116+P40337 [G12D]; assay: PROTAC activity at VHL/KRAS G12D mutant in human ASPC1 cells assessed as decrease in pERK level at 1 uM incubated upto 24 hrs by Western blot analysis; format: cell-based
[20] = target: T1, von Hippel-Lindau disease tumor suppressor/GTPase KRas; assay: PROTAC activity at VHL/KRAS G12D mutant in human ASPC1 cells assessed as inhibition of pERK level incubated for 24 hrs by Western blot analysis; format: cell-based
[21] = tested on: von Hippel-Lindau disease tumor suppressor/GTPase KRas (Homo sapiens), P01116+P40337 [G12D]; assay: PROTAC activity at VHL/KRAS G12D mutant in human ASPC1 cells assessed as induction of protein degradation at 1 uM incubated for 6 hrs followed by compound washout measured after 72 hrs by Western blot analysis; format: cell-based
[22] = AUClast in BALB/c mouse at 10 mg/kg, sc by LC-MS/MS analysis; format: ADME, organism-based; conditions: in vivo
[23] = AUC (infinity) in BALB/c mouse at 10 mg/kg, sc by LC-MS/MS analysis; format: ADME, organism-based; conditions: in vivo
ASPC1 [24] = assay: Antitumor activity in human ASPC1 cells xenografted in BALB/c nude mouse assessed as tumor growth inhibition at 50 mg/kg, sc administered once daily for 22 days relative to control; format: functional; conditions: ASPC1, 528 h, time 22 day, read-out: TGI
ASPC1 [25] = assay: Antitumor activity in human ASPC1 cells xenografted in BALB/c nude mouse assessed as tumor growth inhibition at 50 mg/kg, sc administered once per three days for 22 days relative to control; format: functional; conditions: ASPC1, 528 h, time 22 day, read-out: TGI
[26] = Toxicity in BALB/c nude mouse xenografted with human ASPC1 cells assessed as body weight loss at 50 mg/kg, sc for 22 days; format: organism-based; conditions: in vivo, 528 h, time 22 day
[27] = Toxicity in BALB/c nude mouse xenografted with human ASPC1 cells assessed as notable toxic symptoms at 50 mg/kg, sc for 22 days; format: organism-based; conditions: in vivo, 528 h, time 22 day
ASPC1 [28] = assay: Antitumor activity in human ASPC1 cells xenografted in BALB/c nude mouse assessed as tumor growth inhibition at 30 mg/kg, ip bid for 22 days relative to control; format: functional; conditions: ASPC1, 528 h, time 22 day, read-out: TGI

Chain of von Hippel-Lindau disease tumor suppressor/GTPase KRas (Homo sapiens), P01116+P40337 [G12D] (P01116 whole entry G12D): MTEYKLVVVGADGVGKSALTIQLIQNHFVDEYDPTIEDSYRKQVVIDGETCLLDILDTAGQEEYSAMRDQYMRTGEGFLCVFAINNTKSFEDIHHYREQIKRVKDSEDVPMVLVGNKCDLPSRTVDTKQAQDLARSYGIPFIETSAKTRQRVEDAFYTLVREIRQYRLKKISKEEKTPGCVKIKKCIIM
Chain of von Hippel-Lindau disease tumor suppressor/GTPase KRas (Homo sapiens), P01116+P40337 [G12D] (P40337 whole entry partner): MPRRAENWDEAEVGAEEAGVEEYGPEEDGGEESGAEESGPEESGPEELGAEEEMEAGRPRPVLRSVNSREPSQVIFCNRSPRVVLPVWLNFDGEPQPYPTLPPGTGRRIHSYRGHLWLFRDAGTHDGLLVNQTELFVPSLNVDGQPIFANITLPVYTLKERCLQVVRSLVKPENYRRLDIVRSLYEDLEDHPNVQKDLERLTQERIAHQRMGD
T1 sequence (P01116 whole entry G12D, stated change not applied): as the sequence (P01116 whole entry G12D) above
T1 sequence (P40337 whole entry, stated change not applied): as the sequence (P40337 whole entry partner) above

Structure (SMILES): CCc1c(F)ccc2cc(O)cc(-c3ncc4c(N5C[C@H]6CC[C@@H](C5)N6)nc(OC[C@@H]5CCCN5CCCCOCC(=O)N[C@H](C(=O)N5C[C@H](O)C[C@H]5C(=O)N[C@@H](C)c5ccc(-c6scnc6C)cc5)C(C)(C)C)nc4c3F)c12
- Tmax [1]: 0.25 h
- half-life [2]: 8.7 h
- Ratio IC50 [3]: 3.78
- IC50 (ASPC1 [4]): 231 nM
- IC50 (ASPC1 [5]): 61.1 nM
- DC50 [6]: 38.1 nM
- Ratio IC50 [7]: 15.9
- Drug uptake [8]: Active
- Activity [9]: Active
- Activity [10]: 95%
- Activity [11]: Active
- Activity [12]: inactive
- Activity [13]: Active
- Activity [14]: 75.8%
- Activity [15]: 95.1%
- Activity [16]: inactive
- Activity (ASPC1 [17]): Active
- DC50 [18]: 87.8 nM
- IC50 (SNU1): 43.5 nM
- IC50 (HPAF-II): 45.2 nM
- IC50 (AGS): 31.4 nM
- IC50 (Panc 04.03): 51.5 nM
- IC50 (NCI-H1975): > 10000 nM
- Activity [19]: Active
- IC50 [20]: 52.9 nM
- Activity [21]: Active
- AUC(0-t) [22]: 4470 ng·h/mL
- AUC(0-inf) [23]: 5060 ng·h/mL
- inhibition in vivo at 50 mg/kg (ASPC1 [24]): 68.6%
- inhibition in vivo at 50 mg/kg (ASPC1 [25]): 50.9%
- Activity [26]: Non-Toxic
- Activity [27]: Non-Toxic
- inhibition in vivo at 30 mg/kg (ASPC1 [28]): 89.1%
